One block for each compound: values may come before it.
Assays:
[1] = Adhesion strength of fibrin clots between strips of aortic tissue (Instron); conditions: 15 mg/mL fibrinogen concentrate, calcium chloride 1.8 to 100 mM tested
Method: The adhesive strength of fibrin clots is tested. The adhesion strength of the fibrin glue is assessed by sandwiching the fibrin glue between two strips of aortic tissue and then pulling them apart, simulating the performance of the sealant bonding to tissue. Bovine aorta is prepared by slitting the aorta lengthwise and laying it flat. The aorta is then cut into smaller strips, each approximately 3 cm long and 1 cm wide. […] Sealant is applied (0.1 mL), covering an area of approximately 1 cm^2, to the exposed media as shown. An overlapping joint is formed (approximately one-third the length of each strip) and allowed to “cure” while held in place with a 100 g weight for 30 minutes at 22° C. The non-overlapping ends of the cured samples are clamped in an Instron Model 1120 Universal Testing Instrument (max load 500 g), and a stress-strain curve is recorded while the sample is strained at 100 mm/min until the overlapping (glued) joint failed. Adhesion strength is taken as the maximum stress sustained divided by the joint area (indicated by the glue still visible after the joint failed and measured with a digital caliper).
The effect of cure time on tensile strength and adhesion strength is evaluated by allowing the molded clots and the glued aortic strips (described in Example 9) to cure for 1, 5, 10, 15, 30, and 60 minutes at 22° C. […]

[2] = Tensile strength of fibrin clots (dog-bone mold, Instron); conditions: 15 mg/mL fibrinogen concentrate, calcium chloride 1.8 to 100 mM tested
Method: The tensile strength of fibrin clots is tested. […] The narrow neck provided the weakest point where the clot would break; the force at which the clot breaks serves as an indication of its tensile strength.
Test samples are prepared by simultaneously emptying syringes of fibrinogen and thrombin into a common duct where the mixture entered the mold through the sponge on one end and exited through the sponge on the other end. […] After the sample is given time to “cure,” (30 minutes unless various cure times were being tested), the plexiglass mold is dissembled, and the clot is transferred to an Instron Model 1120 Universal Testing Instrument (Instron Corp., Norwood, Mass., max load 500 g) where it is held on the ends via the sponge “grips”. A stress-strain curve is recorded while the sample is strained at 100 mm/min until it ruptured. The tensile strength is recorded as the maximum stress sustained.
Samples are prepared from a 15 mg/mL pure fibrinogen concentrate (as prepared in Example 4) as follows:
The effect of cure time on tensile strength and adhesion strength is evaluated by allowing the molded clots and the glued aortic strips (described in Example 9) to cure for 1, 5, 10, 15, 30, and 60 minutes at 22° C.
Controls of pooled human plasma (fibrinogen concentration ˜3 mg/mL), pure fibrinogen (15 mg/mL), and Tisseel (average fibrinogen concentration ˜95 mg/mL) are used. […]

[3] = Clottability of precipitated fibrinogen with bovine thrombin (ELISA of clot supernatant, by difference); assay type: biochemical, human; conditions: blood collected into heparin 2 U/mL
Method: The clottability of the recovered fibrinogen is evaluated as follows. A fibrinogen solution as prepared in Example 3 is prepared and used. To 1 mL of the fibrinogen solution 100 μL of bovine thrombin (Vital Products, Inc, Boynton Beach, Fla., 500 Units/mL) is added and the clot is allowed to stand for 30 minutes at 22° C. The clot is then centrifuged for 2 min at 3500 g and the supernatant removed. The amounts of fibrinogen present in the concentrated composition and in the clot supernatant are determined by ELISA, and the fibrinogen present in the clot is determined by difference. […] The amounts of fibrinogen and Factor XIII in the clot supernatant and in the concentrate can be measured with ELISA, and the amounts of fibrinogen and Factor XIII remaining in the clot can be determined by difference.

fibrinogen = target: T1, fibrinogen (Homo sapiens, UniProt P02671+P02675+P02679); test: Fibrinogen precipitation from plasma by protamine (recovery in the concentrate, ELISA / Clauss method); conditions: n=4
T1 construct: Fibrinogen is precipitated from pooled human plasma by addition of protamine sulfate; from tissue; host or cells: human blood plasma (pooled human plasma / platelet-poor plasma of healthy adult donors)
T1 sequence (P02671 20-629 limits assumed): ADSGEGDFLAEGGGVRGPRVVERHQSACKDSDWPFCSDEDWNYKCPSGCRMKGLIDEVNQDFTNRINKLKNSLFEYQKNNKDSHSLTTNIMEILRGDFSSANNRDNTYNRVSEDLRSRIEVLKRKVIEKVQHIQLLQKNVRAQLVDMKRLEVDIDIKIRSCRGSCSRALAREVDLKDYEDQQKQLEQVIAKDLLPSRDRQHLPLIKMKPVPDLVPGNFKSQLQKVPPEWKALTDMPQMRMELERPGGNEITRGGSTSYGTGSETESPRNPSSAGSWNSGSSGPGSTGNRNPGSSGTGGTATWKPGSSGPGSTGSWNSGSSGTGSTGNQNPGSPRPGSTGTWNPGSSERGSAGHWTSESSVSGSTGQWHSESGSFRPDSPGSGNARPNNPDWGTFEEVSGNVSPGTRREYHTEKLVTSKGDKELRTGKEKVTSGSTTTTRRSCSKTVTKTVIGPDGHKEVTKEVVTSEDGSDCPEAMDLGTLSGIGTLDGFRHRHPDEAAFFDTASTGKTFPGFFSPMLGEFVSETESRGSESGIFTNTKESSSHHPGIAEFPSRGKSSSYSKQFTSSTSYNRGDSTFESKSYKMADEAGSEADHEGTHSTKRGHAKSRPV
T1 sequence (P02675 31-491): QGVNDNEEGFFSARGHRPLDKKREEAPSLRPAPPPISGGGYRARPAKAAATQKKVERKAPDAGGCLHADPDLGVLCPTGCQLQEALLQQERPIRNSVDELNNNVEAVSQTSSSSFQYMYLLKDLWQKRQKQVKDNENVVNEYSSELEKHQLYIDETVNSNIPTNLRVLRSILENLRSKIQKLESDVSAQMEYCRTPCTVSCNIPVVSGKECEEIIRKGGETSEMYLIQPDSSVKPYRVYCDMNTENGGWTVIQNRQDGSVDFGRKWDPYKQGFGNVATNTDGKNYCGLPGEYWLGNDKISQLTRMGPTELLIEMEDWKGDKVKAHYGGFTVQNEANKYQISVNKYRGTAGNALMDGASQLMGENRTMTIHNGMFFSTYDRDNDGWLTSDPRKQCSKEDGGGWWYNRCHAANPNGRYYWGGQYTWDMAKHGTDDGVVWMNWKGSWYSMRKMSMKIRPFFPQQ
T1 sequence (P02679 27-453): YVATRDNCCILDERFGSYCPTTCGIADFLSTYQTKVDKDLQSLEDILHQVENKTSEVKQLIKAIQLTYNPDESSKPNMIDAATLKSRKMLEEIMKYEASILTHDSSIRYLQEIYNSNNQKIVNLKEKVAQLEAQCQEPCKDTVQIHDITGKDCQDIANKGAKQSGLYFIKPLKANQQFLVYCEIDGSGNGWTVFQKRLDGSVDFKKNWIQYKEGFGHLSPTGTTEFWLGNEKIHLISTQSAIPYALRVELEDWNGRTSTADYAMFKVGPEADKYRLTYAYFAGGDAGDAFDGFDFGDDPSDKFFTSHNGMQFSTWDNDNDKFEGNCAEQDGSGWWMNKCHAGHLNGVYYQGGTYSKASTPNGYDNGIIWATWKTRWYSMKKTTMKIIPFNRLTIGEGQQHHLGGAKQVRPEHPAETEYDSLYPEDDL
Method: Fibrinogen is precipitated from pooled human plasma by addition of protamine sulfate (Sigma Chemical Co.). The protamine sulfate is used to prepare a stock solution of 40 mg/mL. The protamine is then added to the plasma (final concentration=10 mg/mL), mixed, and then centrifuged at 1000 g for 5 min to sediment the precipitate. The plasma is then decanted, and the remaining precipitate is dissolved in 0.2 M sodium citrate (37° C., pH 7.4).
A concentrated fibrinogen solution is prepared as in Example 3. The fibrinogen and Factor XIII concentrations are evaluated with an enzyme-linked immunosorbent assay (ELISA; AssayPro LLC, Brooklyn, N.Y.). The color intensity of the developed ELISA plates is measured with a Dynex MRX microplate reader (Dynex Technologies, Chantilly, Va.) and compared to a standard curve.
The fibrinogen concentration in the plasma is measured with the Clauss method, where plasma samples are clotted in the presence of excess thrombin in a CoaData 2000 Fibrintimer (Labor GmbH, Hamburg, Germany). The clotting times are recorded, and the fibrinogen concentration is calculated from a standard curve. […]
Heparin is used clinically in most procedures requiring anticoagulation. Heparin is evaluated for its effect on fibrinogen and Factor XIII harvesting and subsequent clotting of harvested fibrinogen. […]

Compound: [Ca+2].[Cl-].[Cl-] [calcium chloride]
- calcium concentration giving maximum adhesion strength [1]: 3.6 to 100 mM
- calcium concentration giving maximum tensile strength [2]: 8.9 to 50 mM

Compound: heparin
- change in clottability of fibrinogen when heparin is present [3]: no observed changes

- fibrinogen in the plasma precipitated (maximum yield) (fibrinogen; blood collected into heparin 2 U/mL, protamine 11 mg/mL in plasma): 95±1%
- fibrinogen precipitated and recovered (percentage of fibrinogen in the original plasma) (fibrinogen; blood or plasma protamine concentration of 10 mg/mL): 96±4%
Compound: protamine sulfate
